Reference: US11220524B2, “Selective inhibitors of protein arginine methyltransferase 5 (PRMT5)” (PRELUDE THERAPEUTICS, INCORPORATED, priority 2017, dated 2022)
Where two headings read alike, the source gives them in different places.

Legend:
[1] = target: PRMT5/MEP50 complex (Homo sapiens (Human), UniProt O14744); experiment: Biochemical assay: PRMT5/MEP50 methylation of histone H2A with 3H-SAM, filter plate scintillation
Method in brief: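 5 nM PRMT5/MEP50 preincubated with compound 15–20 min at room temperature, with 5 μM histone H2A as substrate; reaction started with 1 μM 3H-SAM and run 60 min at 30 °C. TCA-stopped, filter-captured methylation counted by scintillation; IC50 from 4-parameter Hill fit.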

[2] = tested on: Symmetric Di-Methyl Arginine (sDMA) in Granta-519 cells; experiment: Western blot for symmetric di-methyl arginine (sDMA) marks in Granta cells, 3 days treatment; assay type: cell-based; settings: Homo sapiens, Granta-519, 72 h; Granta cell line, 3 days
[3] = tested on: Granta-519 cells; experiment: Cell proliferation assay on Granta-519 cells (CCK-8, day 10); assay type: cell-based; settings: Homo sapiens, Granta-519, 240 h, Granta cell line, read-out: Prolif. IC50
Procedure: Cell Proliferation Assay to Determine IC50 on Granta-519 Cells
Granta-519 cells were maintained in PRMI 1640 (Corning Cellgro, Catalog #: 10-040-CV) medium supplemented with 10% v/v FBS (GE Healthcare, Catalog #: SH30910.03). Compounds were dissolved in DMSO to make 10 mM stocks and stored at −20° C. Nine-point, 3-fold serial dilutions were made with DMSO with top concentration at 1 mM (working stocks).
On day of experiment, compound working stocks were further diluted at 1:50 with fresh medium in 96 well plate, and 10 μL of diluted drugs were added to a new 96 well plate for proliferation assay. Cells growing at exponential phase were spun down at 1500 rpm for 4 min and resuspend in fresh medium to reach a density of 0.5×10^6 cells/ml. 200 ul of cells were added to 96 well plate containing diluted drugs and incubated for 3 days. DMSO was used a vehicle control.
One day 3, 10 μL of Cell Counting Kit-8 (CCK-8, Jojindo, CK04-13) solution was added to a new 96 well plate. Cells incubated with drugs for 3 days were resuspended by pipetting up and down, and 100 μL of cells were transferred to 96 well plate containing CCK-8 reagent to measure viable cells. Plates were incubated in C02 incubator for 2 hours and OD450 values were measured with a microplate reader (iMark microplate reader, Bio-Rad).
For re-plating, compound working stocks were diluted at 1:50 with fresh medium and 10 μL of diluted drugs were added to anew 96 well plate. Cells from Day 3plate (50 ul) were added to 96 well plate containing fresh drug and additional 150 of fresh medium was added to reach 200 ul volume. Plate was returned to CO2incubator and incubated for 3more days. Viable cells measurement and re-plating were repeated on day 6, and the final viable cells measurement was taken on day 10.
Percentage of viable cells, relative to DMSO vehicle control, were calculated and plotted in Graphpad Prism ([Inhibitor] vs. normalized response-Variable slope) to determine proliferation IC50 values on day 10.

[4] = In vivo pharmacokinetic study in rat (i.v. and p.o.)
Procedure: In Vivo Pharmacokinetic Properties of Example 36.
In a rat (SD, male, non-fasted) non-crossover cassette PK study, Example 36 was dosed at 0.25 mg/kg via i.v. administration (N=3) and 2 mg/kg via oral gauge (p.o.) (N=3) with other 3 compounds.
In Vivo Pharmacokinetic Properties of Example 92.
In a rat (SD, male, non-fasted) non-crossover PK study, Example 92 was dosed at 1 mg/kg (DMA: 20% HPBCD=5:95, solution) via i.v. administration (N=2) and 1 mg/kg (0.5% Na CMC+0.5% Tween80, solution) via oral gauge (p.o.) (N=2).

[5] = tested on: sDMA in Granta-519 tumors; experiment: In vivo pharmacodynamic effect: sDMA levels in tumor samples of Granta-519 mouse xenograft model
Procedure: (§1) In Vivo Pharmacodynamic Effect of Example 36 in Granta-519 Mouse Xenograft Model.
(§2) Granta-519 cells was maintained in DMEM medium supplemented with 10% fetal bovine serum and 2 mM L-Glutamine at 37° C. in an atmosphere of 5% C02 in air. Cells in exponential growth phase were harvested and 1×10^7 cells in 0.1 mL of PBS with Matrigel (1:1) were injected subcutaneously at the right lower flank region of each mouse for tumor development. The treatments were started when the mean tumor size reaches approximately 300-400 mm^3. […] Example 36 or vehicle (0.5% methylcellulose+0.1% Tween 80) were administered orally (BID for Example 36, QD for vehicle) at a dose of 25 mg/kg for 6 days. Body weights and tumor size were measured thrice weekly after randomization. Animals were euthanized 4 hours after last dosing on day 6, and blood and tumor samples were collected for analysis.
To measure sDMA levels in tumor samples, tumors from each mouse were weighted and homogenized in RIPA buffer supplemented with protease inhibitor (cOmplete™, EDTA-free Protease Inhibitor Cocktail, Roche). […] Total protein concentrations of lysate were determined by BCA assay (ThermoFisher Scientific, Catalog #: 23225). Equal amount of total proteins from each tumor were separated on SDS-PAGE gel, and sDMA levels were determined by WB as described previously. […]

[6] = tested on: Granta-519 mouse xenograft; experiment: Tumor growth inhibition and body weight in Granta-519 mouse xenograft model; assay type: in vivo; settings: for tumor growth inhibition: N=5
Procedure: as §1, §2
Example 92 or vehicle (0.5% Na CMC+0.5% Tween80, suspension) were administered orally (QD for Example 92, QD for vehicle) at a dose of 50 mg/kg for 14 days. Body weights and tumor size were measured every 3 to 4 days after randomization. Animals were euthanized 4 hours after last dosing, and blood and tumor samples were collected for analysis.

PRMT5/MEP50 complex, sequence (O14744 whole entry): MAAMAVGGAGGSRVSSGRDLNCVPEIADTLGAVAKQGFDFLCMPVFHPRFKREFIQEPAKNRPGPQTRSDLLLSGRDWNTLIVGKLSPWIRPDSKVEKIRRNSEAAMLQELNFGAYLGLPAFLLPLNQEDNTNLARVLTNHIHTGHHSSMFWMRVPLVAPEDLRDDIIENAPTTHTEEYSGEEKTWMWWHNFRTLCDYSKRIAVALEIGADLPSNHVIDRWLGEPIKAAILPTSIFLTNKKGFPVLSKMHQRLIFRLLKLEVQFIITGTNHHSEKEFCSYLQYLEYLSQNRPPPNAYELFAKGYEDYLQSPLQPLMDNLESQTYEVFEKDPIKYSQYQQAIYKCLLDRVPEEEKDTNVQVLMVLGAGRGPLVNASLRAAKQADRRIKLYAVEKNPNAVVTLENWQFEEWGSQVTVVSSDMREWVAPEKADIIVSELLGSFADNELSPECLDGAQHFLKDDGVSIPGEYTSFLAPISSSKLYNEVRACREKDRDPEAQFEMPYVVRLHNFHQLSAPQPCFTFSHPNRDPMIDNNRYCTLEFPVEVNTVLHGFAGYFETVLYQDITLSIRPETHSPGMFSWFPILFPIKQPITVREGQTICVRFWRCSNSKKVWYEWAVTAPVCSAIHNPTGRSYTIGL
PRMT5/MEP50 complex, sequence (Q9BQA1 whole entry partner): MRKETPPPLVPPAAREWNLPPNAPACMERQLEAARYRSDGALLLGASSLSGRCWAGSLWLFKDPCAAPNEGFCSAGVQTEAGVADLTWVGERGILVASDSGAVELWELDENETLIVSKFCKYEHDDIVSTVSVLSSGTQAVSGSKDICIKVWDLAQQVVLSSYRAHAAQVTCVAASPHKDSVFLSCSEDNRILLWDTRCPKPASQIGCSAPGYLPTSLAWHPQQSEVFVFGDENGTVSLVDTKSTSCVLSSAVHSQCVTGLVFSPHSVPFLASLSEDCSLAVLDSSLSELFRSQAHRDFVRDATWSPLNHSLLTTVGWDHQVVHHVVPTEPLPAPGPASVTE

C[C@@](O)(c1ccc(Cl)c(Cl)c1)[C@H]1O[C@@H](n2cnc3c(N)ncnc32)[C@H](O)[C@@H]1O [Example 1-C, (2R,3R,4S,5S)-2-(6-amino-9H-purin-9-yl)-5-((R)-1-(3,4-dichlorophenyl)-1-hydroxyethyl)tetrahydrofuran-3,4-diol]
IC50 ([1]; biochemical potency, read-out: PRTMT5/MEP50 IC50): 3.6 nM
IC50 [2]: 8.2 nM
IC50 [3]: 44 nM
metabolite detection in blood samples ([4]; rat, after dosing of Example 92 at 1 mg/kg): detected in blood samples
AUC0-inf of metabolite ([4]; rat, metabolite after dosing of Example 92 at 1 mg/kg): 284 ng·kg·h/mL/mg
sDMA in tumor samples ([5]; 30 mg/kg, separate experiment): no detectable amount of sDMA
body weight gain ([6]; 30 mg/kg, separate experiment): 6%
tumor growth inhibition ([6]; 30 mg/kg, separate experiment): 61%
metabolite detection in blood and tumor samples ([6]; mouse xenograft, after Example 92 at 50 mg/kg QD for 14 days): detected in all blood and tumor samples

CO/N=c1\[nH]cnc2c1ncn2[C@@H]1O[C@H]([C@](C)(O)c2ccc(Cl)c(Cl)c2)[C@@H](O)[C@H]1O [Example 92, (2S,3S,4R,5R)-2-[(1R)-1-(3,4-dichlorophenyl)-1-hydroxy-ethyl]-5-[(6Z)-6-methoxyimino-1H-purin-9-yl]tetrahydrofuran-3,4-diol]
IC50 ([1]; histone H2A 5 μM, SAM 1 μM, enzyme 5 nM, read-out: PRMT5/MEP50 IC50): 1970 nM
clearance ([4]; blood, iv, rat SD male non-fasted, i.v. 1 mg/kg, N=2): 11.3 mL/min/kg
half-life ([4]; blood, iv, rat SD male non-fasted, i.v. 1 mg/kg, N=2, read-out: T1/2 (printed T2) (converted)): 1.84 h
Vd ([4]; blood, iv, rat SD male non-fasted, i.v. 1 mg/kg, N=2, read-out: Vss): 1.13 L/kg
bioavailability ([4]; blood, po, rat SD male non-fasted, p.o. 1 mg/kg, N=2): > 100%
dose normalized AUC0-inf ([4]; rat SD male non-fasted, p.o. 1 mg/kg, N=2): 2184 ng·kg·h/mL/mg
inhibition of sDMA in tumor samples ([5]; 50 mg/kg orally QD for 14 days): > 90%
body weight loss ([6]; 50 mg/kg orally QD for 14 days): 1%
tumor growth inhibition ([6]; 50 mg/kg orally QD for 14 days): 74%
